Reference: patent US9617289B2, “RSV antiviral compounds” (JANSSEN R&D IRELAND, priority 2012, dated 2017)
Read-outs that look alike come from different tables or passages of the source.

Key:
[1] = system: rgRSV224 virus; assay: Antiviral activity: inhibition of rgRSV224 (GFP-expressing RSV) replication in HeLa cells; format: cell-based, respiratory syncytial virus; conditions: for pEC50: rgRSV224 (MOI=0.02) in HeLa cells, GFP expression three days post-virus exposure; for EC50: human respiratory syncytial virus, HeLa, 72 h
In short: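 HeLa cells infected with GFP-expressing rgRSV224 at MOI 0.02 alongside 4-fold compound dilutions in duplicate (0.5% DMSO). Incubated 3 days at 37 °C; EC50 taken as 50% inhibition of GFP expression by laser microscopy. CC50 measured in parallel uninfected cells by ATP content after 3 days; SI = CC50/EC50.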

[2] = read-out: pEC50, rgRSV224 (MOI=0.02) in HeLa cells, GFP expression three days post-virus exposure (converted)
[3] = read-out: RSV-wt_pEC50, rgRSV224 (MOI=0.02) in HeLa cells, GFP expression three days post-virus exposure

Row | SMILES | melting point [°C] | pEC50 [1] | EC50 [1, 2] [nM] | EC50 [1, 3] [nM]
1 | O=C1N(Cc2nc3nc(Cl)ccc3n2CCCC(F)(F)F)c2cnccc2C12CCOCC2 [Compound 75, 1′-((5-chloro-1-(4,4,4-trifluorobutyl)-1H-imidazo[4,5-b]-pyridin-2-yl)methyl)-2,3,5,6-tetrahydrospiro[pyran-4,3′-pyrrolo[2,3-c]pyridin]-2′(1′H)-one] | 188.67 | 8.3 |  | 
2 | CS(=O)(=O)CCCn1c(CN2C(=O)C3(CCOCC3)c3ccc(F)cc32)nc2cc(Cl)ccc21 [Compound 10, 1-((5-chloro-1-(3-(methylsulfonyl)propyl)-1H-benzo[d]-imidazol-2-yl)methyl)-6-fluoro-2′,3′,5′,6′-tetrahydro-spiro[indoline-3,4′-pyran]-2-one] | 207.14 |  | 2 | 
3 | CS(=O)(=O)CCCn1c(CN2C(=O)C3(CN(C(=O)C(F)(F)F)C3)c3ccccc32)nc2cc(Cl)ccc21 [Compound 31, 1-({5-chloro-1-[3-(methylsulfonyl)propyl]-1H-benzimidazol-2-yl}methyl)-1-(trifluoroacetyl)spiro-[azetidine-3,3′-indol]-2′(1′H)-one] | 249.58 |  | 3.16 | 
4 | CNC(=O)OC1CC2(C1)C(=O)N(Cc1nc3cc(Cl)ccc3n1CCCS(C)(=O)=O)c1ccccc12 [Compound 104, (1R,3R)-1′-((5-chloro-1-(3-(methylsulfonyl)propyl)-1H-benzo[d]imidazol-2-yl)methyl)-2′-oxospiro[cyclobutane-1,3′-indoline]-3-yl methylcarbamate] | 204.17 |  |  | 0.0229
5 | CC(=O)N1CC2(C1)C(=O)N(Cc1cc3cc(Cl)ccc3n1CCCC#N)c1ccccc12 [Compound 62, 4-{2-[(1-acetyl-2′-oxospiro[azetidine-3,3′-indol]-1′(2′H)-yl)-methyl]-5-chloro-1H-indol-l-yl}butanenitrile] | 195.25 |  | 1 | 
6 | CC(=O)N1CCC2(CC1)C(=O)N(Cc1nc3cc(Cl)ccc3n1CCCC#N)c1cnccc12 [Compound 83, 4-(2-((1-acetyl-2′-oxospiro[piperidine-4,3′-pyrrolo[2,3-c]-pyridin]-1′(2′H)-yl)methyl)-5-chloro-1H-benzo[d]imidazol-1-yl)butanenitrile] | 223.53 |  | < 0.158 | 
7 | CS(=O)(=O)CCCn1c(CN2C(=O)C3(CCN(S(=O)(=O)C4CC4)CC3)c3ccncc32)nc2cc(Cl)ccc21 [Compound 85, 1′-((5-chloro-1-(3-(methylsulfonyl)propyl)-1H-benzo[d]-imidazol-2-yl)methyl)-1-(cyclopropylsulfonyl)spiro-[piperidine-4,3′-pyrrolo[2,3-c]pyridin]-2′(1′H)-one] | 150.42 |  | < 0.158 | 
8 | N#CCCCn1c(CN2C(=O)C3(CCN(C(=O)C(O)(C(F)(F)F)C(F)(F)F)CC3)c3ccncc32)nc2cc(Cl)ccc21 [Compound 181, 4-[5-Chloro-2-({2′-oxo-1-[3,3,3-trifluoro-2-hydroxy-2-(trifluoromethyl)propanoyl]spiro[piperidine-4,3′-pyrrolo[2,3-c]pyridin]-1′(2′H)-yl}methyl)-1H-benzimidazol-1-yl]butanenitrile] | 240.41 |  |  | 0.251
9 | N#CCCCn1c(CN2C(=O)C3(CCN(C(=O)OC4COC4)CC3)c3ccncc32)cc2cc(Cl)ccc21 [Compound 80, oxetan-3-yl 1′-((5-chloro-1-(3-cyanopropyl)-1H-indol-2-yl)-methyl)-2′-oxo-1′,2′-dihydro[spiropiperidine-4,3′-pyrrolo-[2,3-c]pyridine]-1-carboxylate] | 208.24 |  | < 0.158 | 
10 | CS(=O)(=O)N1CCC2(CC1)C(=O)N(Cc1cc3cc(Cl)ccc3n1CCCC#N)c1cnccc12 [Compound 105, 4-(5-Chloro-2-{[1-(methylsulfonyl)-2′-oxospiro[piperidine-4,3′-pyrrolo[2,3-c]pyridin]-1′(2′H)-yl]methyl}-1H-indol-1-yl)butanenitrile] | 145.3 |  |  | 0.0832
11 | CC(C)(C)OC(=O)N1CC2(C1)C(=O)N(Cc1nc3cc(Cl)ccc3n1CCCC#N)c1ccccc12 [Compound 70, tert-butyl 1′-((5-chloro-1-(3-cyanopropyl)-1H-benzo[d]-imidazol-2-yl)methyl)-2′-oxospiro[azetidine-3,3′-indoline]-1-carboxylate] | 144.1 |  | < 0.158 | 
12 | CS(=O)(=O)CCCn1c(CN2C(=O)C3(CCN(C(=O)C4CC4)CC3)c3ccncc32)nc2cc(Cl)ccc21 [Compound 90, 1′-({5-Chloro-1-[3-(methylsulfonyl)propyl]-1H-benzimidazol-2-yl}methyl)-1-(cyclopropylcarbonyl)spiro[piperidine-4,3′-pyrrolo[2,3-c]pyridin]-2′(1′H)-one] | 208.64 |  |  | 0.0468
13 | CC(=O)N[C@H]1C[C@@]2(C1)C(=O)N(Cc1nc3cc(Cl)ccc3n1CCCC#N)c1ccccc12 [Compound 146, N-((1r,3r)-1′-((5-chloro-1-(3-cyanopropyl)-1H-benzo[d]imidazol-2-yl)methyl)-2′-oxospiro[cyclobutane-1,3′-indolin]-3-yl)acetamide] | 194.77 |  |  | 0.501
14 | CC(=O)N1CC2(C1)C(=O)N(Cc1nc3cc(Cl)ccc3n1CCCS(C)(=O)=O)c1ccccc12 [Compound 72, 1-acetyl-1′-((5-chloro-1-(3-(methylsulfonyl)propyl)-1H-benzo[d]imidazol-2-yl)methyl)spiro[azetidine-3,3′-indolin]-2′-one] | 226.51 | 9.6 |  | 
15 | COC(=O)N1CCC2(CC1)C(=O)N(Cc1nc3cc(Cl)ccc3n1CCCCF)c1cnccc12 [Compound 178, Methyl 1′-{[5-chloro-1-(4-fluorobutyl)-1H-benzimidazol-2-yl]methyl}-2′-oxo-1′,2′-dihydro-1H-spiro[piperidine-4,3′-pyrrolo[2,3-c]pyridine]-1-carboxylate] | 182.68 |  |  | 0.0288
16 | CC(C)(O)C(=O)N1CC2(C1)C(=O)N(Cc1cc3cc(Cl)ccc3n1CCCC#N)c1ccccc12 [Compound 73, 4-(5-chloro-2-((1-(2-hydroxy-2-methylpropanoyl)-2′-oxospiro[azetidine-3,3′-indolin]-1′-yl)methyl)-1H-indol-1-yl)butanenitrile] | 89.86 |  | 0.501 | 
17 | N#CCCCn1c(CN2C(=O)C3(CCN(S(=O)(=O)C4CC4)CC3)c3ccncc32)cc2cc(Cl)ccc21 [Compound 81, 4-(5-chloro-2-((1-(cyclopropylsulfonyl)-2′-oxospiro-[piperidine-4,3′-pyrrolo[2,3-c]pyridin]-1′(2′H)-yl)methyl)-1H-indol-1-yl)butanenitrile] | 93.04 |  | < 0.158 | 
18 | CC(=O)NS(=O)(=O)N1CCC2(CC1)C(=O)N(Cc1cc3cc(Cl)ccc3n1CCCC#N)c1cnccc12 [Compound 172, N-[(1′-{[5-Chloro-1-(3-cyanopropyl)-1H-indol-2-yl]methyl}-2′-oxo-1′,2′-dihydro-1H-spiro[piperidine-4,3′-pyrrolo[2,3-c]pyridin]-1-yl)sulfonyl]acetamide] | 230.52 |  |  | 0.0661
19 | COC(=O)N1CCC2(CC1)C(=O)N(Cc1cc3cc(Cl)ccc3n1CCCS(C)(=O)=O)c1cnccc12 [Compound 55] | 234.28 |  | 0.0501 | 
